Laboratory results: patent US7544666B2, “NAP derivatives” (Industrial Technology Research Institute, priority 2005, dated 2009)
Where a SMILES comes first, the peptide text is derived from it. Bridges are numbered along the chain shown (N, C = ends).

Assays:
[1] = system: Caco-2 cell; assay: Stability in the Caco-2 cell system; type: in vitro ADME, human; details: 4-hour incubation in Caco-2 Transwell; relative to initial conc. = 100.00 (500 μM)
Experimental: (§1) The stability of the NAP derivatives prepared by EXAMPLE 1 was measured with the system of human colon cancer cell, Caco-2 cell. Caco-2 cells (1×10^5 cells) were first seeded into a polycarbonate film on the upper layer of a 12-well Transwell and incubated for 18 to 26 days at 37° C. The TEER of the Caco-2 cell monolayer was measured over 350 Ω×cm^2. The stability of the NAP derivatives in the Hanks' balanced salt solutions (HBSS) was measured by the concentration changes of NAP and the NAP derivatives incubated in the HBSS at 37° C. for 4 hours. The stability of the NAP derivatives in the Caco-2 cell system was measured by the procedure described below. NAP and the NAP derivatives in the HBSS were added into the upper layer of the Caco-2 cell-seeded Transwell. After 4-hour incubation, the concentration of NAP and the NAP derivatives in the upper and lower layers was measured and analyzed in comparison with the initial concentration (500 μM) by reverse HPLC at 210 nm.

[2] = Stability in Hanks' balanced salt solution (HBSS); type: physicochemical; details: 37° C., relative to initial conc. in HBSS = 100.00
Experimental: as §1

[3] = system: Caco-2 cell monolayer; assay: Permeation to Caco-2 cell monolayer; type: in vitro ADME, human; parameters: unit not given here; details: 4-hour incubation, initial concentration 500 μM in upper layer
Experimental: The permeation of NAP and the NAP derivatives was examined using the Caco-2 cell system. Caco-2 cells (1×10^5 cells) were seeded into the polycarbonate film on the upper layer of a 12-well Transwell and incubated at 37° C. for 18 to 26 days. The TEER of the Caco cell monolayer was measured over 350 Ω×cm^2. NAP and the NAP derivatives in the HBSS were added into the upper layer of the Caco-2 cell-seeded Transwell. After 4-hour incubation, the concentration of NAP and the NAP derivatives in the upper and lower layers was measured and analyzed in comparison with the initial concentration (500 μM) by reverse phase HPLC at 210 nm.

Row | Compound | Conc. after 4-hour in Caco-2 cells [1] | Conc. after 4-hour in HBSS [2] | Conc. at the lover layer [3]
1 | CC[C@H](C)[C@H](NC(=O)[C@H](COP(=O)(O)O)NC(=O)[C@@H](NC(=O)[C@@H]1CCCN1C(=O)[C@H](C)NC(=O)[C@@H](N)CC(N)=O)C(C)C)C(=O)N1CCC[C@H]1C(=O)N[C@@H](CCC(N)=O)C(=O)O [BMEC-NAP9902, NH2-NAPVS(OPO3H2)IPQ-OH] | 94.19 | 98.80 | –
2 | CC[C@H](C)[C@H](NC(=O)[C@H](CO)NC(=O)[C@@H](NC(=O)[C@@H]1CCCN1C(=O)[C@H](C)NC(=O)[C@H](CC(N)=O)NC(=O)c1ccccc1)C(C)C)C(=O)N1CCC[C@H]1C(=O)N[C@@H](CCC(N)=O)C(N)=O [BMEC-NAP0801, Benzoyl-NAPVSIPQ-NH2] | 92.58 | 99.88 | 0.33
3 | CCCCCCCCOC(=O)N[C@@H](CC(N)=O)C(=O)N[C@@H](C)C(=O)N1CCC[C@H]1C(=O)N[C@H](C(=O)N[C@@H](CO)C(=O)N[C@H](C(=O)N1CCC[C@H]1C(=O)N[C@@H](CCC(N)=O)C(N)=O)[C@@H](C)CC)C(C)C [BMEC-NAP0505, nOct-OCO-NAPVSIPQ-NH2] | 76.83 | 93.41 | 0.65
4 | CC[C@H](C)[C@H](NC(=O)[C@H](CO)NC(=O)[C@@H](NC(=O)[C@@H]1CCCN1C(=O)[C@H](C)NC(=O)[C@H](CC(N)=O)NC(=O)OCc1ccccc1)C(C)C)C(=O)N1CCC[C@H]1C(=O)N[C@@H](CCC(N)=O)C(N)=O [BMEC-NAP0805, Cbz-NAPVSIPQ-NH2] | 89.54 | 98.58 | 0.27
5 | CC[C@H](C)[C@H](NC(=O)[C@H](CO)NC(=O)[C@@H](NC(=O)[C@@H]1CCCN1C(=O)[C@H](C)NC(=O)[C@H](CC(N)=O)NC(=O)OCc1ccccc1)C(C)C)C(=O)N1CCC[C@H]1C(=O)N[C@@H](CCC(N)=O)C(=O)O [BMEC-NAP0705, Cbz-NAPVSIPQ-OH] | 72.93 | 100.00 | 0.21
6 | CCCC(=O)N[C@@H](CC(N)=O)C(=O)N[C@@H](C)C(=O)N1CCC[C@H]1C(=O)N[C@H](C(=O)N[C@@H](CO)C(=O)N[C@H](C(=O)N1CCC[C@H]1C(=O)N[C@@H](CCC(N)=O)C(=O)O)[C@@H](C)CC)C(C)C [BMEC-NAP0101, Butyryl-NAPVSIPQ-OH] | 56.02 | 97.76 | –
7 | H-NAPISIPAN-OH [BMEC-NAP0608, H-NAPISIPAN-OH] | 30.58 | 110.89 | –
8 | CC[C@H](C)[C@H](NC(=O)[C@H](CO)NC(=O)[C@@H](NC(=O)[C@@H]1CCCN1C(=O)[C@H](C)NC(=O)[C@H](CC(N)=O)NC(=O)c1ccc2c(c1)C(=O)OC21c2ccc(O)cc2Oc2cc(O)ccc21)C(C)C)C(=O)N1CCC[C@H]1C(=O)N[C@@H](CCC(N)=O)C(=O)O [BMEC-NAP9901, 5(6)FAM-NAPVSIPQ-OH] | 81.63 | – | 0.77
9 | CC[C@H](C)[C@H](NC(=O)[C@H](CO)NC(=O)[C@@H](NC(=O)[C@@H]1CCCN1C(=O)[C@H](C)NC(=O)[C@H](CC(N)=O)NC(=O)c1ccc(-c2ccccc2)cc1)C(C)C)C(=O)N1CCC[C@H]1C(=O)N[C@@H](CCC(N)=O)C(=O)O [BMEC-NAP0703, 4-Phenylbenzoyl-NAPVSIPQ-OH] | 88.79 | 95.73 | –
10 | CC[C@H](C)[C@@H]1NC(=O)[C@H](CO)NC(=O)[C@H](C(C)C)NC(=O)[C@@H]2CCCN2C(=O)[C@H](C)NC(=O)[C@H](CC(N)=O)NC(=O)[C@@H](N)CSSC[C@@H](C(=O)O)NC(=O)[C@H](CCC(N)=O)NC(=O)[C@@H]2CCCN2C1=O [BMEC-NAP0302] (H-CNAPVSIPQC-OH; disulfide 1-10; N-terminus and C-terminus assumed) | 81.33 | – | 1.28
11 | CCCCCCCCOC(=O)N[C@@H](CC(N)=O)C(=O)N[C@@H](C)C(=O)N1CCC[C@H]1C(=O)N[C@H](C(=O)N[C@@H](CO)C(=O)N[C@H](C(=O)N1CCC[C@H]1C(=O)N[C@@H](CCC(N)=O)C(=O)O)[C@@H](C)CC)C(C)C [BMEC-NAP0405, nOct-OCO-NAPVSIPQ-OH] | 17.11 | 99.66 | –
12 | H-NAPVSVPQ-OH [BMEC-NAP0605, H-NAPVSVPQ-OH] | 27.76 | 104.25 | –
13 | CCCCCCC(=O)N[C@@H](CC(N)=O)C(=O)N[C@@H](C)C(=O)N1CCC[C@H]1C(=O)N[C@H](C(=O)N[C@@H](CO)C(=O)N[C@H](C(=O)N1CCC[C@H]1C(=O)N[C@@H](CCC(N)=O)C(=O)O)[C@@H](C)CC)C(C)C [BMEC-NAP0106, C6H13CO-NAPVSIPQ-OH] | 26.74 | 102.05 | –
14 | CCCCOC(=O)N[C@@H](CC(N)=O)C(=O)N[C@@H](C)C(=O)N1CCC[C@H]1C(=O)N[C@H](C(=O)N[C@@H](CO)C(=O)N[C@H](C(=O)N1CCC[C@H]1C(=O)N[C@@H](CCC(N)=O)C(=O)O)[C@@H](C)CC)C(C)C [BMEC-NAP0403, nBu-OCO-NAPVSIPQ-OH] | 29.05 | 98.49 | –
15 | H-NAPVSLPQ-OH [BMEC-NAP0606, H-NAPVSLPQ-OH] | 11.54 | 99.42 | –
16 | H-QAPVSIPQ-OH [BMEC-NAP0602, H-QAPVSIPQ-OH] | 21.81 | 104.94 | –
17 | CCCCC(CC)COC(=O)N[C@@H](CC(N)=O)C(=O)N[C@@H](C)C(=O)N1CCC[C@H]1C(=O)N[C@H](C(=O)N[C@@H](CO)C(=O)N[C@H](C(=O)N1CCC[C@H]1C(=O)N[C@@H](CCC(N)=O)C(N)=O)[C@@H](C)CC)C(C)C (stereo partly shown) [BMEC-NAP0502, iOct-OCO-NAPVSIPQ-NH2] | 82.37 | – | 1.39
18 | CC[C@H](C)[C@H](NC(=O)[C@H](CO)NC(=O)[C@@H](NC(=O)[C@@H]1CCCN1C(=O)[C@H](C)NC(=O)[C@H](CC(N)=O)NC(=O)OCC1c2ccccc2-c2ccccc21)C(C)C)C(=O)N1CCC[C@H]1C(=O)N[C@@H](CCC(N)=O)C(N)=O [BMEC-NAP0806, Fmoc-NAPVSIPQ-NH2] | 76.24 | 100.00 | –
19 | H-QAPVSVPAQ-OH [BMEC-NAP0607, H-QAPVSVPAQ-OH] | 16.54 | 97.33 | –
20 | H-NAPVSIPAQ-OH [BMEC-NAP0601, H-NAPVSIPAQ-OH] | – | – | 0.07
21 | CCCCC(=O)N[C@@H](CC(N)=O)C(=O)N[C@@H](C)C(=O)N1CCC[C@H]1C(=O)N[C@H](C(=O)N[C@@H](CO)C(=O)N[C@H](C(=O)N1CCC[C@H]1C(=O)N[C@@H](CCC(N)=O)C(=O)O)[C@@H](C)CC)C(C)C [BMEC-NAP0105, C4H9CO-NAPVSIPQ-OH] | 49.86 | 98.36 | –
22 | CCCCCCCCCCCCOC(=O)N[C@@H](CC(N)=O)C(=O)N[C@@H](C)C(=O)N1CCC[C@H]1C(=O)N[C@H](C(=O)N[C@@H](CO)C(=O)N[C@H](C(=O)N1CCC[C@H]1C(=O)N[C@@H](CCC(N)=O)C(=O)O)[C@@H](C)CC)C(C)C [BMEC-NAP0406, nDod-OCO-NAPVSIPQ-OH] | 97.75 | 130.04 | –
23 | H-NAPISIPQ-OH [BMEC-NAP0604, H-NAPISIPQ-OH] | 23.89 | 103.83 | –
24 | CCCCC(CC)COC(=O)N[C@@H](CC(N)=O)C(=O)N[C@@H](C)C(=O)N1CCC[C@H]1C(=O)N[C@H](C(=O)N[C@@H](CO)C(=O)N[C@H](C(=O)N1CCC[C@H]1C(=O)N[C@@H](CCC(N)=O)C(=O)O)[C@@H](C)CC)C(C)C (stereo partly shown) [BMEC-NAP0402, iOct-OCO-NAPVSIPQ-OH] | 18.92 | – | 2.02
25 | CCCCCCCCC(=O)N[C@@H](CC(N)=O)C(=O)N[C@@H](C)C(=O)N1CCC[C@H]1C(=O)N[C@H](C(=O)N[C@@H](CO)C(=O)N[C@H](C(=O)N1CCC[C@H]1C(=O)N[C@@H](CCC(N)=O)C(=O)O)[C@@H](C)CC)C(C)C [BMEC-NAP0107, C8H17CO-NAPVSIPQ-OH] | 24.21 | 98.74 | –
26 | Adipyl-NAPVSIPQ-OH [BMEC-NAP0102] | 60.72 | 99.95 | –
